Peptide text beside a SMILES is read from it.
Tests used:
Format in all cases: physicochemical
[1] = Solubility test in water (visual check); conditions: for solubility in water (in words): visual check
Method: To a three necked 1 L flask equipped with stirrer and thermometer, 60.0 g (207.4 mmol) of (R)-2-[2-amino-3-(indol-3-yl)propionylamino]-2-methylpropionic acid, which is as synthesized by methods as described herein, e.g., at Examples 6 and 11, or by the method as previously described in U.S. Patent Application Publication No. 2006/0234947, was added to a mixture of 167.0 mL of water and 21.0 mL of concentrated hydrochloric acid, resulting in the formation of a yellowish brown solution. The pH of the solution was set to 5.6 with 53.0 mL of a 20% NaOH solution at 0-5° C. About 30 minutes later, the crystallization started at 0-5° C. The suspension was stirred overnight at 0-5° C. The suspension was filtered on a pre-chilled funnel. As an in-process control, the solubility of a part of the filter cake in water was checked. […] Form II of (R)-2-[2-Amino-3-(indol-3-yl)propionylamino]-2-methylpropionic acid was isolated and dried at 0-5° C. over P2O5.
To a three necked 6 L flask equipped with overhead stirrer, thermometer, and pH meter, 1189.0 g of wet […] from Step 1 was dissolved in a mixture of 1715.0 mL of water and 250.0 mL of concentrated HCl. The mixture was stirred at 5-10° C. and the pH of the solution was adjusted to 5.6 with 665.0 mL of a 20% NaOH solution maintaining the temperature at 5-10° C. After 30 minutes of stirring, the crystallization began. The resulting suspension was stirred at 0-5° C. overnight. The precipitate was collected by filtration. This collected Form II was suspended in 1.2 L of water and heated to 30-35° C. for two hours. At the beginning, the solid partly dissolved, then precipitated again. […] The suspension was cooled to room temperature (20-25° C.), filtered and washed with 400 mL and 800 mL of water, subsequently then dried at 60-65° C. to constant weight.

[2] = Transition of Form II to Form I / product stability as a function of temperature
Method: At a higher temperature (e.g., 40-50° C.) significant degradation of the product is observed. Further, the isolated yield (45%-50% instead of 60%) and the efficiency of the purification are slightly lower (98.9 area %) at −5° C. than at 0-5° C. […] During the filtration step, the thick suspension could be warmed up and partly dissolves Form II of the compound and decreases the yield.
The complete transition from GAL-101 Form II to GAL-101 Form I is detected at room temperature (20-25° C.) within 15 minutes. The transition can start at above 10° C. The transition can be followed by microscope, the large metastable crystals transform to small crystals within a few minutes at ambient temperature (FIGS. 6-14).

[3] = Transition of Form II to Form I followed by X-ray powder diffraction
Method: X-ray powder diffraction (XRPD) patterns were obtained in a Philips model PW 3710 based PW 1050 Bragg-Brentano parafocusing goniometer using CuKa radiation (l=0.15418 nm), graphite monochromator and proportional counter. The XRD scans were digitally recorded in the […] of 3-35deg with a step size of 0.04deg.
Form II was measured at 20-25° C. (long dashed line), then heated at 30-35 for 15 minutes (solid line), then another 60 minutes (dotted line) (FIG. 2). Form I was also measured (short dashed line). According to the measurements, Form II is highly crystalline and strongly oriented (it forms large plates).
The transition of Form II (dark grey line) to Form I (black line) was complete at 50-60° C. within 30 minutes (FIG. 3). The reference diffractogram of Form I is shown in grey.

[4] = Microscopy study of the transition of Form II to Form I; conditions: 30-35° C., polarized light microscope
Method: Transition of wet Form II to Form I was observed through a MOTIC BA300 microscope (as shown in FIGS. 6-10) under polarized light. The transition from wet Form II to Form I proceeded rapidly. The large Form II crystals transformed to small crystals at 30-35° C. within 2 minutes. The crystals of Form II are large plates. The observed crystal form explains the observed thixotropic property of the suspension of Form II. Form I consists of uniform rounded crystals.

Row | Structure (SMILES) | solubility in water (in words) ([1]; listed as Form I) | temperature above which the transition Form II to Form I can start [2] | speed of transformation to Form I (in words) ([2]; above 30° C.) | time to complete transition from Form II to Form I ([2]; room temperature (20-25° C.)) [min] | water needed to dissolve (water solubility) ([1]; room temperature) | solubility in water (in words) [1] | solubility in water (in words) ([1]; listed as form II) | time to complete transition of Form II to Form I (XRPD) ([3]; 50-60° C.) [min] | conversion of Form II to Form I in dry state (XRPD) ([3]; dry state, 30-35° C.) | time for large Form II crystals to transform to small crystals (wet Form II to Form I) [4] [min]
1 | CC(C)(NC(=O)[C@H](N)Cc1c[nH]c2ccccc12)C(=O)O [GAL-101 Form I, (R)-2-[2-amino-3-(indol-3-yl)propionylamino]-2-methylpropionic acid] (HELM PEPTIDE1{[dW].[Aib]}$$$$V2.0) | almost insoluble in water | – | – | – | – | – | – | – | – | –
2 | CC(C)(NC(=O)[C@H](N)Cc1c[nH]c2ccccc12)C(=O)O [GAL-101 Form II, (R)-2-[2-amino-3-(indol-3-yl)propionylamino]-2-methylpropionic acid] (HELM PEPTIDE1{[dW].[Aib]}$$$$V2.0) | – | above 10 °C | very rapidly | ≤ 15 | about 4 volumes of water | high water solubility | Immediately dissolving | ≤ 30 | converts gradually to Form I | ≤ 2
